Values of other authors, collected in patent publication US20230285429A1, “CANNABINOID ACID FORMULATIONS, DELIVERY SYSTEMS, AND METHODS OF USE” (Flora Growth U.S. Holdings Corp., priority 2022, published 2023).

Legend:
[1] = target: spike protein of SARS-CoV-2 (Severe acute respiratory syndrome coronavirus 2, UniProt P0DTC2)
[2] = fatty acids, intestinal lymph

| SMILES | affinity for the spike protein [1] | percentage transported to the lymph system [2] [%] |
| --- | --- | --- |
| C=C(C)[C@@H]1CCC(C)=C[C@H]1c1c(O)cc(CCCCC)c(C(=O)O)c1O [CBDA, cannabidiolic acid] | high affinity |  |
| CCCCCc1cc(O)c(C/C=C(\C)CCC=C(C)C)c(O)c1C(=O)O [CBGA, cannabigerolic acid] | high affinity |  |
| CCCCCCCCCC(=O)O [decanoic] |  | 13 |
| CCCCCCCCCCCC(=O)O [lauric] |  | 28 |
| CCCCC/C=C\C/C=C\CCCCCCCC(=O)O [linoleic] |  | 32 |
